Data on one compound can be found in patent publication US20210335449A1, “Method or System for Identification of a Causative Mutation Causing a Phenotype of Interest in a Test Sample” (Oxford University Innovation Limited, priority 2018, published 2021).

The subject of the assay is Marchantia polymorpha wild-type plants. In words: Chlorsulfuron resistance determination (survival two weeks after exposure to a lethal dose). It counts as in vivo. The following applies: 0.1 ppm dose (lethal dose); survival assessed two weeks following exposure. On the procedure: Marchantia polymorpha spores were irradiated with ultraviolet B irradiation and seven independent mutant lines resistant to the herbicide chlorsulfuron were identified. Chlorsulfuron resistance was determined by a Marchantia polymorpha plant that was alive two weeks following exposure to a lethal dose of Chlorsulfuron (0.1 ppm dose, i.e. a dose sufficient to kill 100% of wild-type plants).

For `COc1nc(C)nc(NC(=O)NS(=O)(=O)c2ccccc2Cl)n1` [Chlorsulfuron], the wild-type plants killed is 100%.
